≈ marks a conversion by molar mass, not a printed value.
details: buffer; pH 7.4; 200.0 µM

SMILES	solubility kinetic [µg/mL]
COc1ccc(NC(=O)C2=NN(C3CCS(=O)(=O)C3)C(=O)CC2)cc1S(N)(=O)=O (stereo not given)	> 66.7
N#Cc1ccc(NC(=O)C2=COCCO2)cc1	> 34.5
COc1ccccc1N1CCN(C(=O)c2cc3cc(C)ccc3[nH]2)CC1	< 0.2
CSc1ccc(S(=O)(=O)N2c3ccccc3CC2C)cc1 (stereo not given)	1.7 (≈ 5.32 µM)
CCC(CO)n1c(=S)[nH]c2cc(OC)c(OC)cc2c1=O (stereo not given)	> 46.6
O=C(CCl)N(C1CCCC1)C1CCS(=O)(=O)C1 (stereo not given)	> 42
CC(C)[C@H](NC(=O)c1ccccc1)C(=O)NCCc1ccccc1	10.3 (≈ 31.7 µM)
O=C(NC1CCCCCC1)C(=O)NC1CC1	19.8 (≈ 88.3 µM)
O=C(NCc1cccs1)C1CC(c2ccc(Cl)cc2)=NO1 (stereo not given)	1.3 (≈ 4.05 µM)
O=C(Nc1ccc2oc(-c3ccncc3)nc2c1)c1ccco1	12.7 (≈ 41.6 µM)
CCOC(=O)N1CCN(Cc2cc(Cl)c3cccnc3c2O)CC1	> 52.5
Cl.O=c1cc[nH]c2c1ccc1c(=O)cc[nH]c12	34.6
COc1ccc(CNc2ncc(-c3ccccc3)n2C)cc1	28.6 (≈ 97.5 µM)
CCOC(=O)COc1cc([N+](=O)[O-])cc2cccnc12	> 41.4
CCC(=O)Nc1ccc(S(=O)(=O)Nc2ccccn2)cc1	> 45.8
CS(=O)(=O)N1CCCC(C(=O)Nc2ccccc2F)C1 (stereo not given)	> 45.1
CCCn1c2ccccc2c2cnn(CC(=O)N(CC)CC)c(=O)c21	> 51.1
COc1ccc(S(=O)(=O)N2CCOCC2)cc1NC(=O)CSc1ncccn1	13.8 (≈ 32.5 µM)
Cc1ccccc1CC(=O)N1CC(C)OC(C)C1 (stereo not given)	> 37.1
O=C(N/C(=C/c1ccco1)C(=O)N1CCc2ccccc21)c1ccco1	4.4 (≈ 12.6 µM)
Cc1ccc(Nc2nc(-c3ccc(F)cc3)cs2)nc1	< 0.2
CC(=O)N1CCN(c2ccccc2NC(=O)c2ccc(C#N)cc2F)CC1	52.6 (≈ 144 µM)
Clc1cccc(-c2csc(Nc3cccnc3)n2)c1	< 0.2
O=C1NC(=O)C(c2ccccc2)(c2ccccc2)N1	> 37.8

SMILES	solubility kinetic [µg/mL]
CCN(c1ccccc1)S(=O)(=O)c1ccc(OC)c(NC(=O)c2ccc(=O)[nH]c2)c1	24.2 (≈ 56.6 µM)
Cc1ccc(C(=O)N2CCN(c3ccccn3)CC2)cc1C	> 44.3
Nc1ncnc(Nc2ccc(F)c(Cl)c2)n1	8.4 (≈ 35.1 µM)
O=C(Nc1ccc2c(c1)OCCO2)C(=O)c1c[nH]c2ccccc12	< 0.3
Cc1ccc(Nc2c(F)c(F)c(F)c(F)c2C(=O)O)c(C)c1	40.4 (≈ 129 µM)
Cc1nnc(NC(=O)CN2C(=O)NC3(CCCC3)C2=O)s1	> 46.4
CCn1c(O)c(C=NCc2ccccc2)sc1=S	< 0.3
CCOc1ccccc1/C=C(\C(=O)O)c1ccc(S(=O)(=O)N2CCCCC2)s1	> 63.2
CCc1cc2c(=O)oc(-c3ccc(Br)cc3)nc2s1	< 0.7
Cc1cc(Cl)nc(-c2ccccc2)n1	0.3 (≈ 1.47 µM)
CN1CCCCCC1=Nc1ccc([N+](=O)[O-])cc1.Cl	> 42.6
CCOC(=O)CCCC(=O)N1CCOCCOCCOCC1	> 47.6
CC(NC=O)c1nc2ccccc2n1CCc1ccccc1 (stereo not given)	43.9 (≈ 150 µM)
COc1cc([N+](=O)[O-])ccc1NC(=O)C1C2C=CC(C2)C1C(=O)O (stereo not given)	> 49.8
Cc1nc(SCCc2ccccc2)[nH]c(=O)c1C	10.9 (≈ 41.9 µM)
NC(=O)CN1C(=O)NC(c2ccccc2)(c2ccccc2)C1=O	> 46.4
Cc1nc2c(C(F)(F)F)cccc2c2c1CCS2	< 0.6
Cc1ccc(N=C2C(=O)Nc3ccc(C)c(Br)c32)cc1	32.6 (≈ 99 µM)
CC(C)COP(=O)(c1ccc(N(C)C)cc1)C(O)c1ccccc1 (stereo not given)	> 52.1
O=Cc1ccc(Oc2ncccn2)cc1	> 30
COc1cccc(C(=O)OCC(=O)NC(=O)NC2CCCC2)c1O	38.5 (≈ 114 µM)
CCN(C(=O)CN1CCCCCC1)c1c(N)n(Cc2ccccc2)c(=O)[nH]c1=O	> 59.9
COc1ccc(OCC(=O)c2c[nH]c3ccccc23)cc1	< 0.6
CCCCCCOC(=O)Cc1c(C)nc(N)[nH]c1=O	> 40.1

SMILES	solubility kinetic [µg/mL]
CCn1c(=S)[nH]c2sc3c(c2c1=O)CCCC3	9.2 (≈ 34.5 µM)
COc1ccc(NC(=O)CS(=O)(=O)c2ccccc2Cl)cc1	43.8 (≈ 129 µM)
COc1ccc2oc(C(=O)OC(C)C(=O)N3C(C)CCCC3C)c(C)c2c1 (stereo not given)	8.4 (≈ 22.5 µM)
Cc1ccccc1C(=O)N1CCN(c2ncccn2)CC1	> 42.4
COC(=O)c1cc(-c2ccc(OC)cc2)on1	9.7 (≈ 41.6 µM)
NC(=O)c1cccc2ccccc12	> 25.7
Nc1ccc2ccc3cccc[n+]3c2c1.[O-][Cl+3]([O-])([O-])[O-]	> 44.2
Cc1ccc2nc(SCC(=O)NC3CCCC3)[nH]c2c1	36.1 (≈ 125 µM)
COc1ccc(CCNC(=O)COC(=O)c2cncc(Br)c2)cc1OC	> 63.5
N#C/C(=C\c1ccccc1)C(=O)OCC(=O)N1CCCC1	> 42.6
COc1ccc(NC2=CC(=O)CC(C)(C)C2)cc1	> 36.8
NS(=O)(=O)c1ccc(CCNC(=O)NC2CCCCC2)cc1	> 48.8
CN(Cc1nc2ccccc2c(=O)[nH]1)C(=O)c1cc2c(s1)CCCCC2	4.8 (≈ 13.1 µM)
C/C(=C\C(=O)c1sccc1Cl)N(C)C	> 34.5
O=C(CSc1ccc([N+](=O)[O-])cn1)Nc1nccs1	1.9 (≈ 6.41 µM)
O=C(CN1CCOCC1)Nc1ccc(Cl)cn1	> 38.4
Cc1cccc(N2C(=O)C3CCCN3C2=S)c1C (stereo not given)	38.4 (≈ 147 µM)
Cc1ccnc(NC2(C(F)(F)F)N=C3SCCN3C2=O)c1 (stereo not given)	> 47.4
OC(CNCCc1c[nH]c2ccccc12)c1ccccc1 (stereo not given)	37 (≈ 132 µM)
CCOc1ccc(S(=O)(=O)NC2CCCCCC2)cc1	< 0.6
Cn1cc(S(=O)(=O)NCCc2ccccc2)c(=O)n(C)c1=O	> 48.5
CN(C(=O)Nc1ccccc1)C1CCCCC1	8.6 (≈ 37 µM)
Cc1csc(NC(=O)CCCc2cccs2)n1	28.2 (≈ 106 µM)
O=C(NCCN1CCCCC1)c1ccc(F)cc1Cl	> 42.7

SMILES	solubility kinetic [µg/mL]
CC(NC(=O)CNC(=O)c1ccco1)c1ccccc1 (stereo not given)	> 40.8
Cl.c1ccc(C2CNCCc3ccccc32)cc1 (stereo not given)	> 39
Nc1ccc(C(=O)Nc2nccs2)cc1	> 32.9
CCOc1ncccc1C(=O)Nc1ccccc1N1CCOCC1	> 49.1
CCN(CCO)C(=O)c1ccc2oc(Cc3ccc(Cl)cc3)nc2c1	41.5 (≈ 116 µM)
CP(=O)(Nc1ccccc1)C(Cl)(Cl)Cl (stereo not given)	> 40.9
O=S1(=O)CCN2C=C(Cl)C=C(Cl)C2=N1	> 38
COc1ccccc1CCn1cc(C#N)c(=O)[nH]c1=O	> 40.7
Cc1cccc(Cn2c(-c3ccc[nH]c3=O)nc3ccccc32)c1	36.7 (≈ 116 µM)
Cn1c(C(=O)N[C@@H](C(=O)O)c2ccccc2)cc2cc(F)ccc21	45.4 (≈ 139 µM)
CN1C(=O)Cc2cc(S(=O)(=O)NCc3cccs3)ccc21	> 48.4
Cc1ccc(OCCNC(=O)CNC(=O)c2ccc(Cl)c([N+](=O)[O-])c2)cc1	12.6 (≈ 32.2 µM)
COC(=O)c1cccc(-n2c(CCC(=O)O)ccc2-c2cccs2)c1	> 53.3
CC(C)(C)NS(=O)(=O)c1ccc(/C=C/C(=O)O)cc1	> 42.5
CCc1ccc(C(C)NC(=O)C2CCCC2)cc1 (stereo not given)	18.8 (≈ 76.6 µM)
CC(C)(C)c1ccc(C2=NC(=O)C(CC(=O)O)S2)cc1 (stereo not given)	37.4 (≈ 128 µM)
c1nc(Nc2ccc(N3CCOCC3)cc2)c2ccsc2n1	> 46.9
CC(=O)c1cccc(CN2CCN(C3CCCC3)C(CCO)C2)c1 (stereo not given)	> 49.6
Cc1ccc(C(=O)NCCc2nnc(SCC(=O)Nc3cccc(C(=O)O)c3)n2C)cc1	> 68
NC(=O)c1cccc(CS(=O)(=O)c2ccc(Cl)cc2)c1	16.4 (≈ 52.9 µM)
O=C(NCc1ccco1)Nc1ccc(OC(F)(F)F)cc1	11.1 (≈ 37 µM)
Cc1ccc(C2CCN(C(=O)Nc3ccc(F)cc3)C2)cc1 (stereo not given)	1.7 (≈ 5.7 µM)
Cn1c(N)c(-c2ccccc2)c2ccc([N+](=O)[O-])cc2c1=O	1.1 (≈ 3.73 µM)
COc1ccc(NC(=O)CON=CC(=O)Nc2ccc(C)cc2)c(OC)c1	3.8 (≈ 10.2 µM)

SMILES	solubility kinetic [µg/mL]
CSc1nc2ccc(Br)cc2[nH]1	35.7 (≈ 147 µM)
COC(=O)c1sccc1NC(=O)Nc1ccc(C)cc1C	6.6 (≈ 21.7 µM)
COc1ccccc1OCC(=O)Nc1ccncc1	> 38.7
O=C(O)c1ccccc1CSc1ncccc1C(=O)O	> 43.4
O=C(c1cccc(S(=O)(=O)N2CCCc3ccccc32)c1)N1CCN(c2ccccc2)CC1	3.6 (≈ 7.8 µM)
Cc1noc(C)c1C(=O)Nc1ccc2ccccc2c1	11.2 (≈ 42.1 µM)
Cc1ccc(S(=O)(=O)N2CCOCC2)cc1NC(=O)CNCc1ccc(Cl)cc1Cl	5.4 (≈ 11.4 µM)
Cc1ccc(Cn2c(=S)[nH]c3ccccc3c2=O)cc1	< 0.3
O=C(COC(=O)c1ccc(Br)cc1)NCC1CCCO1 (stereo not given)	> 51.3
CN1CCC(OC(=O)c2ccco2)CC1.Cl	> 36.9
CCOc1ccccc1N1CC(C(=O)N2CCOCC2)CC1=O (stereo not given)	44.6 (≈ 140 µM)
CC1(C)Cc2c(c(N3CCCC3)nc3sc4c(N5CCNCC5)ncnc4c23)CO1	28.6 (≈ 67.4 µM)
CCc1ccc(N2CC(C(=O)Nc3cc(C)on3)CC2=O)cc1 (stereo not given)	26 (≈ 83 µM)
CC(=O)N1CCN(C(=O)COC(=O)/C=C/c2ccccc2[N+](=O)[O-])CC1	> 54.2
O=C(NC1CCCc2ccccc21)c1ccc([N+](=O)[O-])cc1 (stereo not given)	3.2 (≈ 10.8 µM)
N#Cc1cccc(NC(=O)COC(=O)C2CCC2)c1	> 38.7
COCCn1c(SCC(=O)NCCCN2CCCC2=O)nc2ccccc2c1=O	> 62.8
O=C(CSc1nc2ccccc2c(=O)n1CCCN1CCOCC1)Nc1ccccc1OC(F)F	> 75.7
O=C(CC(=O)Nc1ccc(F)cc1)Nc1ccc(F)cc1	3.1 (≈ 10.7 µM)
Cc1nn(C)c(NC(=O)c2ccccc2Cl)c1Br	> 49.3
Cc1onc(-c2c(Cl)cccc2Cl)c1NC(=O)N1CCSCC1	> 55.8
CN(C(=O)c1ccccc1OCc1ccc(Cl)cc1)c1ccccc1	10.7 (≈ 30.4 µM)
COc1ccc(OC(C)C(=O)N(C)Cc2nc(-c3ccccc3)no2)cc1 (stereo not given)	41 (≈ 112 µM)
OC1CCN(Cc2ccc(OCc3ccccc3)cc2)CC1	> 44.6

Reference: PubChem BioAssay AID1996
